We go through four molecules from patent publication EP2739262B1, “USE OF A CB1 RECEPTOR ANTAGONIST AS A WHITENING AND/OR ANTI-BROWNING AGENT FOR KERATIN MATERIAL” (L'OREAL, priority 2011, dated 2013).

Experiment [1] has as its system mélanocytes épidermiques humains normaux (NHEM). Kind of experiment: Melanin content of melanocytes (spectrophotometry at 450 nm). The format is cell-based. Conditions: result in words; for quantité de mélanine dans les mélanocytes (NHEM): via the CB1 receptor. As for the experimental part: Des mélanocytes épidermiques humains normaux (NHEM) isolés de prépuce et fournis par Promocell (Heidelberg, Allemagne), sont cultivés pendant 24h à 37°C dans une atmosphère humide à 5% de CO2 dans un milieu de culture adapté M2 (Promocell).
L'AEA et les autres composés sont ajoutés directement dans le milieu de culture. 24h après chaque traitement, la viabilité des cellules a été mesurée par l'utilisation du colorant d'exclusion bleu Trypan (Maccarone et al., 2003).
Le mAEA et l'AEA sont testés in vitro à une concentration de 1 µM et comparés. Le mAEA est aussi utilisé à cette concentration quand il est utilisé en combinaison avec le SR1 à 0,1 µM.
La quantité en mélanine présente dans les cellules NHEM est mesurée selon une méthode connue de l'homme du métier (Xiao et al., Arch Dermatol Res 2007; 299 : 245-57). Selon cette méthode, les cellules NHEM sont traitées à la trypsine et lavées deux fois avec un tampon phosphate salin. Ensuite les échantillons sont resuspendus dans 200 µl d'eau MilliQ et 1 ml d'un mélange éthanol : éther (1:1, vol/vol) est ajouté pour éliminer les substances opaques autres que la mélanine. Après 15 minutes, les échantillons sont centrifugés à 600g pendant 5 minutes. Le culot est séché à l'air et dissout dans 200 µl de soude 1N. Les échantillons sont ensuite chauffés à 80°C pendant une heure et refroidis.
La quantité de mélanine est déterminée par spectrophotométrie à 450 nm en utilisant les contrôles standards de mélanine fournis par Sigma Chemical Co., de façon à vérifier la gamme de linéarité de l'essai. La quantité de mélanine est exprimée par rapport au contrôle.
Les résultats donnés sont les moyennes avec leurs écarts type de 3 essais indépendants, chacun réalisé en triplicata. Ils ont été comparés par analyse de variance (ANOVA).

Experiment [2] deals with epidermes reconstruits pigmentés (ERP). Kind of experiment: Depigmenting effect on reconstructed pigmented epidermis (ERP): melanin quantified by image analysis of Fontana Masson stained sections. The experiment is classed as cell-based, humains. The note with it: for production de mélanine dans les épidermes pigmentés reconstruits: result in words. As for the experimental part:
Des épidermes pigmentés sont reconstruits sur un support collagénique (BPER) à l'aide de mélanocytes et kératinocytes humains normaux.
Les épidermes sont obtenus après 8 jours de reconstruction, les mélanocytes choisis sont de phototype estimé IV.1
Certains épidermes sont traités quotidiennement par le placebo, d'autres par le produit à tester […] à différentes concentrations (0,1 µM et 0,5µM).
Le produit à tester est évalué à deux concentrations en comparaison à son solvant seul (placebo) et à un actif dépigmentant de référence, le lucinol à 500µM. Les épidermes reconstruits ainsi traités sont irradiés ou non avec des UV.^2
Chaque condition expérimentale est réalisée en quadruplicat.
La qualité histologique des épidermes après traitement est évaluée sur coupes histologiques après coloration HES afin de déterminer l'impact du traitement sur les épidermes. Aussi la physiologie des mélanocytes est étudiée pour détecter une éventuelle mélano-cytotoxicité. Si aucune altération histologique ni aucun effet mélano-toxique du produit évalué n'est révélé, une quantification de la pigmentation est effectuée par quantification de la mélanine sur coupes histologiques par analyse d'images
Une quantification de la pigmentation par quantification microscopique de la mélanine est alors réalisée et permet d'objectiver une activité propigmentante du composé à tester.
La mélanine présente dans l'épiderme est colorée sur coupes histologiques (coloration Fontana Masson) puis quantifiée par analyse d'images. Pour cela, chaque épiderme est photographié sur toute sa largeur à l'aide d'un microscope. Environ 10 images sont acquises par épiderme (lumière blanche, grossissement X20).
La surface occupée par la mélanine est quantifiée à l'aide d'un logiciel d'analyse d'image développé à façon. Brièvement, chaque image est segmentée en 4 zones selon leur couleur (lumière, stratum corneum, épiderme vivant et BPER). La mélanine présente dans l'épiderme sous forme de grains noirs est seuillée comme étant la zone la plus sombre de l'épiderme sur le plan rouge. Les pixels occupés par la mélanine dans l'épiderme entier ou les couches vivantes sont ensuite quantifiés.
Cette quantification rend compte de la surface occupée par la mélanine ainsi que de la localisation moyenne de la mélanine dans l'épiderme.
Les résultats ci-dessous sont exprimés en pourcentage de stimulation relative par rapport au témoin cultivé en milieu de co-culture standard.

Where two headings read alike, the source gives them in different places.

On to `CCCCC/C=C\C/C=C\C/C=C\C/C=C\CCCC(=O)N[C@H](C)CO` [mAEA, R(+)-arachidonyl-1'-hydroxy-2'-propylamide], for which, in experiment [1], the “quantité de mélanine dans les mélanocytes (NHEM)” value was “augmentent de manière significative la quantité de mélanine”.

In the case of `CCCCc1ccc(O)cc1O` [Lucinol], the activity at 50 µM in experiment [2] (light or radiation study, 360 h, with UV irradiation, 50µM 150mJ/cm^2 UVB SYST D15, irradiated DMSO = 131,914894, read-out: mélanine, % par rapport au témoin (DMSO 1/1000 = 100)) was 31.9%. Further, in experiment [2] (light or radiation study, 408 h, without UV irradiation, 30µM SYST D17, read-out: mélanine, % par rapport au témoin (DMSO 1/1000 = 100)), the activity at 30 µM is 10.5%.

Consider `Cc1c(C(=O)NN2CCCCC2)nn(-c2ccc(Cl)cc2Cl)c1-c1ccc(Cl)cc1` [SR141716, 5-(4-Chlorophenyl)-1-(2,4-dichloro-phenyl)-4-methyl-N-(piperidin-1-yl)-1H-pyrazole-3-carboxamide], for which, in experiment [1] (SR1 0,1 µM with mAEA 1 µM), the “effets pro-pigmentants du mAEA” value is “empêche le mAEA d'avoir ses effets pro-pigmentants”. Further, the activity at 0.1 µM in experiment [2] (light or radiation study, 360 h, with UV irradiation, 0,1µM 150mJ/cm^2 UVB SYST D15, irradiated DMSO = 131,914894, read-out: mélanine, % par rapport au témoin (DMSO 1/1000 = 100)) was 76.6%; in experiment [2] (light or radiation study, 408 h, without UV irradiation, 0,1µM SYST D17, read-out: mélanine, % par rapport au témoin (DMSO 1/1000 = 100)) it was 64.5%. Moreover, the activity at 0.5 µM is 55.3% in experiment [2] (light or radiation study, 360 h, with UV irradiation, 0,5µM 150mJ/cm^2 UVB SYST D15, irradiated DMSO = 131,914894, read-out: mélanine, % par rapport au témoin (DMSO 1/1000 = 100)) and 72.4% in experiment [2] (light or radiation study, 408 h, without UV irradiation, 0,5µM SYST D17, read-out: mélanine, % par rapport au témoin (DMSO 1/1000 = 100)). In addition, the “production de mélanine dans les épidermes pigmentés reconstruits” value is recorded as “diminution importante de la production de mélanine” in experiment [2] (with UV irradiation, 0,1 and 0,5µM); “diminution importante de la production de mélanine” in experiment [2] (without UV irradiation, 0,1 and 0,5µM).

For the molecule `CCCCC/C=C\C/C=C\C/C=C\C/C=C\CCCC(=O)NCCO` [AEA, N-arachidonoylethanolamine], in experiment [1], the “quantité de mélanine dans les mélanocytes (NHEM)” value is “augmentent de manière significative la quantité de mélanine”.
